Measurements from US9513294B2, “Megastokes amino-triazolyl-BODIPY compounds and applications to live neuron staining and human serum albumin FA1 drug site probing” (National University of Singapore, priority 2012, dated 2016).
Blank lines part the entries; values can stand above or below the molecule they belong to.

How the values were obtained:
[1] = Absorbance and fluorescence emission spectra (SpectraMax M2); format: physicochemical; conditions: for λmax Abs. (nm) / λmax Em. (nm): MKAC compound library; for λmax Abs. (nm) / λmax Absorp. (nm): absorbance maximum; for λmax Em. (nm) / λmax Emission (nm): fluorescence emission maximum; for λmax Absorp. (nm) / λmax Emission (nm): MKCA compound library
Description: BDC-8 (Blue): absorbance λmax=473 nm, emission λmax=585 nm; MK101-8 (Green): absorbance λmax=474 nm, emission λmax=563 nm; MKHA374-48 (Yellow): absorbance λmax=468 nm, λem=557 nm. The corresponding spectra of a reported BODIPY (BD-27; Red) are also included for comparison: absorbance λmax=551 nm, emission λmax=568 nm. The structures of BDC-8, MK101-8, MKHA374-48 and BD-27 are also depicted.
(§1) ^1H-NMR, ^19F-NMR and ^13C-NMR spectra were recorded on Bruker ACF300 (300 MHz), DPX300 (300 MHz) and AMX500 (500 MHz) spectrometers. High resolution mass spectra (ESI) were obtained on a Finnigan/MAT 95XL-T spectrometer. Spectroscopic and quantum yield data were measured on a SpectraMax M2 spectrophotometer (Molecular Devices). Data analysis was performed using GraphPrism 5.0. Analytical characterization was performed on a HPLC-MS (Agilent-1200 series) with a DAD detector and a single quadrupole mass spectrometer (6130 series) with an ESI probe. Analytical HPLC method: eluents, A: H2O (0.1% HCOOH), B: CH3CN (0.1% HCOOH), gradient 5% B to 95% B (10 min). Reverse-phase Phenomenex C18 Luna column (4.6×50 mm^2, 3.5 […]), flow rate: 1 mL/min.

[2] = Quantum yield measurements versus Acridine Yellow in EtOH; format: physicochemical; conditions: for φ (%): quantum yield; for φ (quantum yield): excitation 460 nm
Description: as §1
Quantum yields were calculated by measuring the integrated emission area of the fluorescent spectra and comparing to the area measured for Acridine Yellow in EtOH when excited at 460 nm (Φfluorescence^AcridineYellow=0.47). Quantum yields for the amino-triazolyl-BODIPYs were calculated using the equation below, where F represents the area of fluorescent emission, η is the refractive index of the solvent, and Abs is absorbance at the excitation wavelength selected for standards and samples. Emission was integrated between 510 and 700 nm.

λmax Abs. (nm) [1]: 464 nm
λmax Em. (nm) [1]: 558 nm
φ (%) ([2]; MKAC compound library): 15.35%
SMILES: CCOc1ccccc1CNC1=[N+]2C(=C(c3ccc(NC(C)=O)cc3)c3ccc(-n4cc(CO)nn4)n3[B-]2(F)F)C=C1 [MKAC103-70]

λmax Absorp. (nm) [1]: 466 nm
λmax Emission (nm) [1]: 573 nm
φ (%) ([2]; MKCA compound library): 6.71%
SMILES: CC1CN(C2=[N+]3C(=C(c4ccc(NC(=O)CCl)cc4)c4ccc(-n5cc(CC6CCCCC6)nn5)n4[B-]3(F)F)C=C2)CC(C)O1 (stereo not shown) [MKCA20-8]

λmax Absorp. ([1]; MK library, Table 5): 480 nm
λmax Emission ([1]; MK library, Table 5): 586 nm
φ (quantum yield) ([2]; MK library, Table 5): 0.16%
SMILES: CCCCCC(O)c1cn(-c2ccc3n2[B-](F)(F)[N+]2=C(N4CC(C)OC(C)C4)C=CC2=C3c2ccc(N)cc2)nn1 (stereo not shown) [MK20-69]

λmax Absorp. (nm) [1]: 469 nm
λmax Emission (nm) [1]: 587 nm
φ (%) ([2]; MKCA compound library): 3.33%
SMILES: O=C(CCl)Nc1ccc(C2=C3C=CC(N4CCc5ccccc5C4)=[N+]3[B-](F)(F)n3c2ccc3-n2cc(C3CC3)nn2)cc1 [MKCA66-4]

λmax Absorp. ([1]; BDCCA library, Table 4): 467 nm
λmax Emission ([1]; BDCCA library, Table 4): 584 nm
φ (quantum yield) ([2]; BDCCA library, Table 4): 0.5%
SMILES: CC(C)CCc1cn(-c2ccc3n2[B-](F)(F)[N+]2=C(N4CCCCC4)C=CC2=C3c2ccc(NC(=O)CCl)cc2)nn1 [BDCCA-36]

λmax Absorp. (nm) [1]: 462 nm
λmax Emission (nm) [1]: 569 nm
φ (%) ([2]; MKCA compound library): 3.42%
SMILES: CCCCCC(O)c1cn(-c2ccc3n2[B-](F)(F)[N+]2=C(N4CCCC4)C=CC2=C3c2ccc(NC(=O)CCl)cc2)nn1 (stereo not shown) [MKCA215-69]

λmax Absorp. ([1]; MK library, Table 5): 474 nm
λmax Emission ([1]; MK library, Table 5): 565 nm
φ (quantum yield) ([2]; MK library, Table 5): 1.92%
SMILES: Cc1ccccc1CNC1=[N+]2C(=C(c3ccc(N)cc3)c3ccc(-n4cc(CO)nn4)n3[B-]2(F)F)C=C1 [MK101-70]

λmax Absorp. ([1]; BDCAC library, Table 3): 467 nm
λmax Emission ([1]; BDCAC library, Table 3): 583 nm
φ (quantum yield) ([2]; BDCAC library, Table 3): 0.7%
SMILES: CC(=O)Nc1ccc(C2=C3C=CC(N4CCCCC4)=[N+]3[B-](F)(F)n3c2ccc3-n2cc(CO)nn2)cc1 [BDCAC-70]

λmax Absorp. ([1]; MK library, Table 5): 471 nm
λmax Emission ([1]; MK library, Table 5): 578 nm
φ (quantum yield) ([2]; MK library, Table 5): 0.22%
SMILES: Nc1ccc(C2=C3C=CC(N4CCCC4)=[N+]3[B-](F)(F)n3c2ccc3-n2cc(CCc3ccccc3)nn2)cc1 [MK215-19]

λmax Absorp. ([1]; MK library, Table 5): 476 nm
λmax Emission ([1]; MK library, Table 5): 580 nm
φ (quantum yield) ([2]; MK library, Table 5): 0.57%
SMILES: CC1CN(C2=[N+]3C(=C(c4ccc(N)cc4)c4ccc(-n5cc(C6CCCC6)nn5)n4[B-]3(F)F)C=C2)CC(C)O1 (stereo not shown) [MK20-5]

λmax Absorp. ([1]; BDCAC library, Table 3): 468 nm
λmax Emission ([1]; BDCAC library, Table 3): 585 nm
φ (quantum yield) ([2]; BDCAC library, Table 3): 0.9%
SMILES: CC(=O)Nc1ccc(C2=C3C=CC(N4CCCCC4)=[N+]3[B-](F)(F)n3c2ccc3-n2cc(CC3CCCCC3)nn2)cc1 [BDCAC-8]

λmax Absorp. ([1]; BDC library, Table 2): 471 nm
λmax Emission ([1]; BDC library, Table 2): 552 nm
φ (quantum yield) ([2]; BDC library, Table 2): 0.74%
SMILES: CC(C)(C)c1ccc(-c2cn(-c3ccc4n3[B-](F)(F)[N+]3=C(N5CCCCC5)C=CC3=C4c3ccc(N)cc3)nn2)cc1 [BDC-11]

λmax Absorp. ([1]; BDCAC library, Table 3): 466 nm
λmax Emission ([1]; BDCAC library, Table 3): 565 nm
φ (quantum yield) ([2]; BDCAC library, Table 3): 1.9%
SMILES: CC(=O)Nc1ccc(C2=C3C=CC(N4CCCCC4)=[N+]3[B-](F)(F)n3c2ccc3-n2cc(C3=CCCCC3)nn2)cc1 [BDCAC-37]

λmax Absorp. (nm) [1]: 467 nm
λmax Emission (nm) [1]: 563 nm
φ (%) ([2]; MKCA compound library): 36.25%
SMILES: O=C(CCl)Nc1ccc(C2=C3C=CC(NCc4cc(F)cc(F)c4)=[N+]3[B-](F)(F)n3c2ccc3-n2cc(C3CC3)nn2)cc1 [MKCA412-4]

λmax Abs. (nm) [1]: 465 nm
λmax Em. (nm) [1]: 563 nm
φ (%) ([2]; MKAC compound library): 21.14%
SMILES: CC(=O)Nc1ccc(C2=C3C=CC(NCc4ccccc4C)=[N+]3[B-](F)(F)n3c2ccc3-n2cc(CC3CCCCC3)nn2)cc1 [MKAC101-8]

λmax Absorp. ([1]; BDC library, Table 2): 474 nm
λmax Emission ([1]; BDC library, Table 2): 579 nm
φ (quantum yield) ([2]; BDC library, Table 2): 0.12%
SMILES: Nc1ccc(C2=C3C=CC(N4CCCCC4)=[N+]3[B-](F)(F)n3c2ccc3-n2cc(C3=CCCCC3)nn2)cc1 [BDC-37]

λmax Abs. (nm) [1]: 465 nm
φ (%) ([2]; MKAC compound library): 13.14%
SMILES: CC(=O)Nc1ccc(C2=C3C=CC(NCc4ccccc4C)=[N+]3[B-](F)(F)n3c2ccc3-n2cc(CN(C)Cc3ccccc3)nn2)cc1 [MKAC101-18]

λmax Absorp. (nm) [1]: 465 nm
λmax Emission (nm) [1]: 564 nm
SMILES: CCCC(C)c1cn(-c2ccc3n2[B-](F)(F)[N+]2=C(NCc4cc(OC)ccc4OC)C=CC2=C3c2ccc(NC(=O)CCl)cc2)nn1 (stereo not shown) [MKCA181-3]
